Assay results as given in US5994363A (priority 1998, dated 1999).
Values joined by “and” are separate entries in the source; they are usually repeats but may differ in a detail not shown here. Equal values may be shown once. Where a name gives a salt, the structure may show the parent alone.

Experiments:
[1] = Duration of vomiting and retching in dog after daily subcutaneous apomorphine HCl (Example 1); format: in vivo
[2] = Number of dogs acclimatized to retching/vomiting; blood pressure and heart rate (Example 2); format: in vivo, dog
Description: This study provides a different view of data recorded in Example 1.
Observations were made at three different dosage levels, 0.04, 0.1 and 0.4 mg/kg/day. No dose escalation was attempted in this study. A group of five dogs was used for tests at each dosage level. The number of dogs in each dosage group with a retching or vomiting episode in each post-administration time period was recorded for daily administration over about 180 days. Ten day averages were calculated and plotted (see FIGS. 3 through 6).
The blood pressure and heart rates of an untreated group of dogs was evaluated for comparison purposes.

[3] = Adverse events in escalating dose tolerance study in psychogenic male erectile dysfunction (Example 5); format: in vivo, human
Description: Example 5-Summary. This clinical study was conducted in three phases. In Phase 1 subjects were selected from among patients complaining of impotence by a thorough physiological and psychological assessment. For example, one step in the assessment process required candidates to undergo Rigiscan measurement of penile rigidity and circumference following administration of a placebo tablet in single blind fashion. Phase 2 consisted of a dose escalation (4, 6, and 8 mg tablets) administered on 4 visits. An out-patient phase was conducted as Phase 3. Patients were given apomorphine HCL tablets to use at home.
Example-5 Detailed Description (Clinical Study #94-03-01). The human study was conducted in three separate phases. Phase 1 consisted of selecting appropriate subjects and obtaining baseline information on sexual performance for each subject.
They were tested on four separate days at four separate doses (placebo and three active medication doses) with an interval of no less than six days between visits (i.e., one visit per week).
If the trial was aborted, the patient was given the choice of having Gravol 50 mg p.o. (an anti-emetic) administered at that time or enduring the adverse events as they arose. In either event, the patient was monitored by the research clinician until all side-effects had subsided. The patient was asked to return the following week for the next scheduled dose.
(§1) During the five-week, home-use phase, subjects were to attempt coitus at least once each week after taking a single APO tablet. After each attempt, the subject and their partner completed a Sexual Function questionnaire (See FIGS. 15 and 16) which was later evaluated and used for final statistical analysis.
The data was analyzed by an inspection of the reported adverse events, the given dose of apomorphine and the phase of the study, i.e., in-patient (dose escalating) or take-home (constant dose) phases.

[4] = Take-home sexual intercourse success rate (Example 5, Phase III); format: in vivo, human
From the text: as §1
(§2) For the third phase, subjects had recorded at baseline, their satisfaction,erection, number of attempts, and successful intercourse on a VAS scale (see Tables Xa-Xc, above). Evaluateable subjects first recorded a success rate, then completed VAS for erection results and satisfaction with intercourse following take-home treatment. The success rates, as shown in Tables XVa-XVb, below, were calculated for milligrams of APO as well as for micrograms per kilogram of the patient's body weight doses (males). There were four criteria for recording a success in the take-home phase. […] Several evaluations of the data were made including the male and female responses to treatments via questionnaires (see FIGS. 15 and 16).

[5] = Take-home erection results, VAS questionnaire question 1 (Example 5, Phase III); format: in vivo, human; conditions: for Erection Results (Maximum) Percent Change from Baseline, LSMEAN: all sites; for Erection Results (Maximum) Percent Change from Baseline, MEAN: all doses, site #1, #2, #3, #4, listed as APO
From the text: as §1, §2
(§3) Tables XVIIa--XVIId, below, show the statistical results of phase III with respect to Rigiscan™ results (a and b) and intercourse satisfaction (c and d) based on question 1 and question 3, respectively, from the completed questionnaires (see FIGS. 15 and 16). […] The maximum improvement from baseline were 56% in males and 59% in females. The mean improvement were 29% in males and 34% in females. […] The mean improvements were 34% in females and 45% in males.

[6] = Take-home intercourse satisfaction, VAS questionnaire question 3 (Example 5, Phase III); format: in vivo, human; conditions: for Satisfaction Percent Change from Baseline, LSMEAN / Satisfaction Percent Change from Baseline, MEAN: MALE
From the text: as §1, §2, §3

[7] = mouse, cited from earlier work
[8] = single bolus subcutaneous injection, mammals; cited from earlier work
[9] = Side effects after subcutaneous, sublingual and oral apomorphine HCl in dog (Example 3)

CN1CCc2cccc3c2[C@H]1Cc1ccc(O)c(O)c1-3 [apomorphine HCl]
time to acclimatization (retching and vomiting) ([1]; 0.4 mg/kg/day s.c.): about 10 days
effect of escalation on vomiting/retching ([1]; 0.8 mg/kg/day after 21 days at 0.4 mg/kg/day): no evidence of an increase in vomiting/retching
wash out period required to establish homeostasis ([1]; after CNS supersensitivity): 4 to 6 weeks
effect of increasing dose by 100% of the acclimation dose on duration ([1]; after acclimation established): no corresponding increase in the duration of retching and vomiting
movement disorders ([1]; dose reduced from 1.2 to 0.8 mg/kg/day): movement disorders were again observed
average duration of retching/vomiting period ([1]; following daily administration): about 5 minutes
average duration of retching/vomiting period ([1]; following initial dose): about 30 minutes
time to acclimatization (retching and vomiting) ([1]; lower doses (0.05 mg/kg start), s.c. daily): ≤ 3 days
effect of challenge on duration of vomiting ([1]; lower doses, after 12 days, dose 100% greater than acclimatized dose): Only a small increase in the duration of vomiting
daily treatment needed for 80 percent effective acclimation ([2]; 0.4 mg/kg/day s.c.): about 3 months
net changes in blood pressure ([2]; after 5 months chronic treatment, vs untreated controls): not significantly different from the controls
heart rate after administration ([2]; after 5 months chronic treatment, 0.04, 0.1, 0.4 mg/kg/day): tachycardia sometimes occurs
bradycardia ([2]; initially, lost by acclimation): badycardia was reported in some subjects
Total Number of Adverse Events ([3]; Phase 2 (dose escalation), 4 mg/week): 31
Total Number of Adverse Events ([3]; Phase 2 (dose escalation), 6 mg/week): 58
Total Number of Adverse Events ([3]; Phase 2 (dose escalation), 8 mg/week): 50
Total Number of Adverse Events ([3]; Phase 3 (out-patient), 4 mg): 15
Total Number of Adverse Events ([3]; Phase 3 (out-patient), 6 mg): 13
Total Number of Adverse Events ([3]; Phase 3 (out-patient), 8 mg): 8
overall incidence of nausea ([3]; all administered doses): less than 13%
severe nausea cases ([3]; all doses): two
hypotension ([3]; also bradycardia, dizziness, syncope, pallor reported): reported as an adverse event in some subjects
Anti-Emetic In Patient, Total ([3]; in vivo): 8
Anti-Emetic Take Home, Total ([3]; in vivo): 2
In-Patient A.E.'s, Total ([3]; in vivo): 109
Take-Home A.E.'s, Total ([3]; in vivo): 25
decrease in adverse events per tablet ([3]; in vivo): ~95.6%
frequency of side effects ([3]; in vivo): 94.2%
incidence of vomiting ([3]; in vivo): less than 3%
increased sweating and fatigue ([3]; in vivo): also reported
severe hypotension and pallor ([3]; in vivo): Only single cases
severe increased sweating ([3]; in vivo): One of the cases
Sexual Intercourse Success Rate ([4]; Female, 6 mg, listed as APO): 73.3% and 73%
Sexual Intercourse Success Rate ([4]; Female, 35-50 μg/kg): 60.0%
Sexual Intercourse Success Rate ([4]; Female, 50-74 μg/kg, listed as APO): 82%
Sexual Intercourse Success Rate ([4]; Female, Overall): 70.0%
Sexual Intercourse Success Rate ([4]; Male, 6 mg, listed as APO): 73.3% and 73%
Sexual Intercourse Success Rate ([4]; Male, 35-50 μg/kg): 80.0%
Sexual Intercourse Success Rate ([4]; Male, 50-74 μg/kg, listed as APO): 73%
Sexual Intercourse Success Rate ([4]; Male, Overall): 70.0%
overall success rate ([4]; whole study, baseline rate 28%, listed as APO): 70% and 72%
Erection Results (Maximum) Percent Change from Baseline, LSMEAN ([5]; FEMALE, 4 mg): 33.57%
Erection Results (Maximum) Percent Change from Baseline, LSMEAN ([5]; FEMALE, 6 mg): 45.00%
Erection Results (Maximum) Percent Change from Baseline, LSMEAN ([5]; FEMALE, 8 mg): 59.00%
Erection Results (Maximum) Percent Change from Baseline, MEAN ([5]; FEMALE): 52.56% and 41.25% and 46.50% and 36.29%
Erection Results (Maximum) Percent Change from Baseline, LSMEAN ([5]; MALE, 4 mg): 55.71%
Erection Results (Maximum) Percent Change from Baseline, LSMEAN ([5]; MALE, 6 mg): 42.80%
Erection Results (Maximum) Percent Change from Baseline, LSMEAN ([5]; MALE, 8 mg): 31.86%
Erection Results (Maximum) Percent Change from Baseline, MEAN ([5]; MALE): 52.22% and 57.00% and 36.22% and 33.00%
erection rigidity, mean improvement ([5]; females): 34%
erection rigidity, maximum improvement from baseline ([5]; females (best at 8 mg)): 59%
erection rigidity, mean improvement ([5]; males): 29%
erection rigidity, maximum improvement from baseline ([5]; males (best at 4 mg)): 56%
Satisfaction (Maximum) Change from Baseline, LSMEAN ([6]; FEMALE, 4 mg, all sites): 41.86
Satisfaction (Maximum) Change from Baseline, LSMEAN ([6]; FEMALE, 6 mg, all sites): 40.60
Satisfaction (Maximum) Change from Baseline, LSMEAN ([6]; FEMALE, 8 mg, all sites): 62.33
Satisfaction (Maximum) Change from Baseline, MEAN ([6]; FEMALE, all doses, site #1, #2, #3, #4, listed as APO): 57.00 and 37.75 and 33.29
Satisfaction Percent Change from Baseline, LSMEAN ([6]; 4 mg, all sites): 49.14%
Satisfaction Percent Change from Baseline, LSMEAN ([6]; 6 mg, all sites): 51.47%
Satisfaction Percent Change from Baseline, MEAN ([6]; 6 mg, all sites, site #1, #2, #3, #4, listed as APO): 51.47% and 40.60% and 59.50% and 54.50% and 58.00%
Satisfaction Percent Change from Baseline, LSMEAN ([6]; 8 mg, all sites): 56.57%
Satisfaction Percent Change from Baseline, MEAN ([6]; all doses, b893 site #1, b897 #2, b901 #3, b905 #4, listed as APO): 58.00% and 48.50% and 49.56% and 50.00%
VAS satisfaction, mean improvement ([6]; females): 34%
VAS satisfaction, maximum improvement from baseline ([6]; females, 8 mg): 62%
VAS satisfaction, mean improvement ([6]; males): 45%
VAS satisfaction, maximum improvement from baseline ([6]; males, 8 mg): 57%
lethality at or above about 13 mg/kg ([7]; single bolus subcutaneous): reported lethal
LD50 [7]: > 50 mg/kg
tolerated dose [8]: up to 13 mg/kg
Average Severity ([9]; oral 0.2 mg/kg): 0.00%
number of animals having nausea/vomiting ([9]; oral 0.2 mg/kg, 8 min, 4 animals per group): 0
number of animals having nausea/vomiting ([9]; oral 0.2 mg/kg, 15 min): 0
number of animals having nausea/vomiting ([9]; oral 0.2 mg/kg, 30 min): 0
Average Severity ([9]; subcutaneous 0.04 mg/kg): 150.00%
number of animals having nausea/vomiting ([9]; subcutaneous 0.04 mg/kg, 8 min, 4 animals per group): 4
number of animals having nausea/vomiting ([9]; subcutaneous 0.04 mg/kg, 15 min): 2
number of animals having nausea/vomiting ([9]; subcutaneous 0.04 mg/kg, 30 min): 0
Average Severity ([9]; sublingual 0.2 mg/kg): 50.00%
number of animals having nausea/vomiting ([9]; sublingual 0.2 mg/kg, 8 min, 4 animals per group): 0
number of animals having nausea/vomiting ([9]; sublingual 0.2 mg/kg, 15 min): 1
number of animals having nausea/vomiting ([9]; sublingual 0.2 mg/kg, 30 min): 1
